Earlier results as cited in US20170258815A1, “CORTICOSTEROID FORMULATIONS AND METHODS FOR THE TREATMENT OF JOINT PAIN IN PATIENTS WITH DIABETES” (Flexion Therapeutics, Inc., priority 2016, published 2017).

Test system: patients with controlled DM and OA of the knee

Structure (SMILES)	Levels of blood glucose after IA injection compared with IA hyaluronic acid
CC1(C)O[C@@H]2C[C@H]3[C@@H]4CCC5=CC(=O)C=C[C@]5(C)[C@@]4(F)[C@@H](O)C[C@]3(C)[C@]2(C(=O)CO)O1 [TCA, Triamcinolone acetonide]	significantly increased levels of blood glucose
CC(C)(C)CC(=O)OCC(=O)[C@@]12OC(C)(C)O[C@@H]1C[C@H]1[C@@H]3CCC4=CC(=O)C=C[C@]4(C)[C@@]3(F)[C@@H](O)C[C@@]12C [triamcinolone hexacetonide]	significantly increased levels of blood glucose
